Key:
[1] = test system: HepG2 cell; assay: Cytotoxicity test (CCK-8), hepatotoxicity; assay type: cell-based; settings: Homo sapiens, HepG2, 72 h
Protocol: (§1) HepG-2 and SH-SY5Y cells were prepared and placed in a 10 cm dish and cultured in a cell incubator in 5% CO2 at 37° C. Trypsin was used to digest and cells were re-suspended and counted. The cells were transferred to 96-well plate with 8000 cells in a well (100 μl/well). The plate was cultured in a cell incubator for 24 h in 5% CO2 at 37° C. A serial of gradient concentration dilutions of compound with 2-fold dilution were prepared, and the system was 100 μL/well. The supernatant of cell culture system on the first day in the 96-well plate was removed, and fresh-prepared drug concentration system was added into culture plate wells containing cultured cells (duplicate wells were set). The cells were cultured in a cell incubator in 5% CO2 at 37° C. for 72 h. After the cell culture was completed, the supernatant of cell culture system was removed from 96-well plate, 100 μl of detection solution containing 10% CCK-8 medium was added into each well, and the cells were cultured in a cell incubator in 5% CO2 at 37° C. for 1 h and then taken out after time was up. Microplate reader was used to measure the absorbance at 450 nm. Data was processed to calculate cytotoxicity, and IC50 was calculated by GraphPad Prism. The cytotoxicity calculation formula was as follows: Cytotoxicity (%)=[A(0 Dosing)−A(Dosing)]/[A(0 Dosing)-A (Control)]×100 • A (Dosing): the absorbance of wells containing cells, CCK-8 solution and drug solution. • A (Control): the absorbance of wells containing medium and CCK-8 solution and without cells. • A (0 Dosing): the absorbance of wells containing cells and CCK-8 solution and without drug solution. Experimental Result

[2] = test system: SH-SY5Y; assay: Cytotoxicity test (CCK-8), neurotoxicity; assay type: cell-based; settings: Homo sapiens, 72 h
Protocol: as §1

[3] = test system: C57BL/6 mice; assay: formalin pain model in mice; assay type: in vivo; settings: for paw licking time: Phase II, 10-60 min; for analgesic effect (EDso) in phase II pain: intraperitoneal
Protocol: Before the start of experiment, the mice were allowed to adapt to the experimental environment for 72 h with free feeding and drinking water. The test drug was administrated by intraperitoneal injection at a dose of 20 mg/kg, and then the mice were placed in a transparent, ventilated plexiglass cylinder for 1 h, and then 20 μl of 4% formalin solution was injected into the left hind plantar of mice of each group by microinjector. The paw pain response of mice was real-time recorded by miniature camera. The frequency of lifting (1 score/time), shaking (2 score/time), and licking (3 score/time) the left paw and the time length of licking left paw were used as indicators of pain response, the cumulative scoring and licking time in two stages of 0-10 min (phase I, acute pain phase) and 10-60 min (phase II, inflammatory pain phase) were observed and recorded, and the statistical analysis was conducted.
100 male C57BL/6 mice (9-week aged) were randomly divided into 10 groups to evaluate analgesic activity of two compounds in the formalin pain model in mice, and each group had 10 mice. […] Before the start of experiment, the mice were allowed to adapt experimental environment for 72 h with free feeding and drinking water.
After administration, the mice were placed in a transparent, ventilated plexiglass cylinder, and 1 h later, 20 μl of 4% formalin solution was injected into the left hind plantar of mice in each group by micro-injector, and paw pain response in mice was recorded in real time by a mini-camera. The time length of licking left paw was used as an indicator of pain response, licking time in 0-10 min (phase I) and 10-60 min (phase II) was observed and recorded, and the statistical analysis was conducted. The half effective dose (EDso) of three compounds was calculated: EDso referred to the dose of the drug that decreased licking time by half as compared with the blank control group. The less the ED50 value was, the lower the effective analgesic dose of the compound was and the stronger the analgesic effect was.

[4] = test system: C57 mice; assay: hot plate pain model in mice; assay type: in vivo; settings: 10 mg/kg intraperitoneal, hot plate 55° C.
Protocol: SPF-grade C57 male mice were placed at hot plate with constant 55±0.1° C. […] If the pain reaction of mice was observed, the mice were taken out immediately to prevent mice from scalding. […] Appropriate amount of test compounds were added into required volume of physiological saline and fully suspended, and the concentration of the drug compound was prepared as 1 mg/ml. The standard volume of administration to mice was 10 ml/kg (or 0.1 ml/10 g). The administration mode was intraperitoneal administration. […] The administration volume was 10 ml/kg. […] Hot plate observation indicator is the time latency of mice on the hot plate at 55±0.1° C. Measurement and recording were conducted at 3 h before administration and 15 min, 30 min, and 60 min after administration. Maximum possible effect (MPE) % was used to evaluate analgesic effect of each compound, i.e., MPE %=[(Post drug latency-baseline latency)/(30-baseline latency)]×100. MPE % at different time points was recorded. The higher the value of MPE % was, the stronger the analgesic effect of the compound was.

| Compound | IC50 [1] | IC50 [2] | paw licking time ([3]; 1 mg/kg intraperitoneal) | paw licking time ([3]; 5 mg/kg intraperitoneal) | paw licking time ([3]; 10 mg/kg intraperitoneal) | paw licking time ([3]; 20 mg/kg intraperitoneal) | analgesic effect (EDso) in phase II pain ([3]; phase II (10-60 min)) | paw licking time ([3]; 0.1 mg/kg intraperitoneal) | paw licking time ([3]; 0.5 mg/kg intraperitoneal) | decrease of paw licking time as compared with blank vehicle ([3]; 1 mg/kg, phase II (10-60 min)) | analgesic activity compared with the positive controls gabapentin and duloxetine [4] | analgesic activity, licking time ([3]; 20 mg/kg intraperitoneal, phase I (0-10 min) and phase II (10-60 min), compared with saline group) |
| --- | --- | --- | --- | --- | --- | --- | --- | --- | --- | --- | --- | --- |
| CNCC[C@H](Oc1cccc2ccccc12)c1cccs1 [Duloxetine (S configuration), Duloxetine, reference compound] | 33 µM | 28 µM | 259.97 ± 64.44 s | 230.49 ± 41.31 s | 162.83 ± 36.27 s | 72.27 ± 17.29 s | 8.00 mg/kg |  |  |  |  |  |
| CNCC[C@H](Oc1cccc2ccoc12)c1cccs1 [IC-1, (S)-3-(Benzofuran-7-yloxy)-N-methyl-3-(thiophen-2-yl)propan-1-amine] | 60 to 120 µM | 60 to 120 µM | 171.57 ± 39.69 s | 158.02 ± 25.18 s | 35.68 ± 11.77 s |  | 2.22 mg/kg | 339.35 ± 27.90 s | 368.16 ± 44.46 s | more than 50% | stronger than those of gabapentin and duloxetine |  |
| CNCC[C@H](Oc1cccc2c1CCC2)c1cccs1 [IC-10] | 60 to 120 µM | 60 to 120 µM |  |  |  |  |  |  |  |  | stronger than those of gabapentin and duloxetine | almost completely inhibited licking paw behavior caused by pain |

Source: patent US12492195B2, “Preparation method for and crystal form of 3-aryloxy-3-five-membered heteroaryl-propylamine compound” (Zhangzhou Pien Tze Huang Pharmaceutical Co., Ltd., priority 2020, dated 2025)
